Data from US6787566B2, “Breakers of advanced glycation endproducts” (City of Hope, priority 1999, dated 2004).
“Also recorded” adds a separate entry of the source.

What was measured:
Type in all cases: biochemical
[1] = target: T1, AGE cross-links in tail tendon collagen of diabetic rats (Rattus norvegicus, UniProt P02454+P02466); experiment: Papain digestibility assay, collagen-linked fluorescence; conditions: for Papain digestion Assay (% decrease in fluorescence): relative to untreated collagen of diabetic rats
T1 construct: collagen was isolated from the tail tendon of diabetic and normal controls; from tissue; host or cells: tail tendon of streptozotocin-diabetic male Sprague-Dawley rats
Method: For this study, diabetes was first induced in male Sprague-Dawley rats (Charles River, Wilmington, Mass.) weighing about 150-175 g by injection of streptozotocin (65 mg/kg, i.p.). […] Thirty-two weeks later, the rats are sacrificed and collagen was isolated from the tail tendon of diabetic and normal controls as described by Kochakian et al. (1996). Tail tendons were dissected free of adhering tissues, washed thoroughly in PBS containing protease inhibitors (1 mM each of EDTA, PMSF, iodoacetamide and benzamidine hydrochloride), patted dry onto a paper towel, rolled into a ball, freeze dried, and stored at -20° C. in sealed containers until used. Representative samples of tail tendon collagen were pulled from its bulk and were cut approximately 20-25 mm in size. […] Untreated control tubes include tail tendon collagen and PBS buffer only. The tubes were incubated at 37° C. for 24 hours. After incubation, the tubes were centrifuged at 10,000 rpm and the supernatants discarded. The collagen samples were rinsed with PBS, vortexed thoroughly, centrifuged briefly, and the supernatant discarded. This rinsing was repeated twice. On final rinse, the supernatant was discarded and the tubes inverted for one minute for the samples to air dry. These collagen samples were used immediately in the acid solubility and digestion studies. […] Digests were centrifuged at 10,000 rpm for 60 minutes at 4° C., and the supernatant separated from the pellet. […] Aliquots of the supernatant digests were also subjected to acid hydrolysis followed by hydroxyproline measurements. The results were expressed as fluorescence units per micromole of hydroxyproline content of each sample. Percent decrease in fluorescence was calculated as above. […] The tubes were autoclaved in a steam sterilizer at 250° F. for 3.5 hours. The samples were taken to dryness using a Savant Speed Vac concentrator with heat, and stored at 4° C. until assayed. The dried samples were rehydrated with 200 μL deionized water, and aliquots were assayed for their hydroxyproline content in a 96-well microtiter plate as described by […] et al. (1997).

[2] = target: T1, AGE cross-links in tail tendon collagen of diabetic rats; experiment: Tendon collagen solubility in weak acid after in vitro treatment; conditions: for Acid Solubility Test (% increase in solubility): relative to untreated collagen of diabetic rats
Method: For this study, diabetes was first induced in male Sprague-Dawley rats (Charles River, Wilmington, Mass.) weighing about 150-175 g by injection of streptozotocin (65 mg/kg, i.p.). […] Tail tendons were dissected free of adhering tissues, washed thoroughly in PBS containing protease inhibitors (1 mM each of EDTA, PMSF, iodoacetamide and benzamidine hydrochloride), patted dry onto a paper towel, rolled into a ball, freeze dried, and stored at −20° C. in sealed containers until used.
Representative samples of tail tendon collagen were pulled from its bulk and were cut approximately 20-25 mm in size. The samples were then placed inside 1.5 mL microfuge tubes and suspended with 1 mL of the desired concentration of the AGE-breaker compound in PBS buffer (pH 7.4) containing 0.02 g/L NaN3. Untreated control tubes include tail tendon collagen and PBS buffer only. The tubes were incubated at 37° C. for 24 hours. After incubation, the tubes were centrifuged at 10,000 rpm and the supernatants discarded. The collagen samples were rinsed with PBS, vortexed thoroughly, centrifuged briefly, and the supernatant discarded. This rinsing was repeated twice. On final rinse, the supernatant was discarded and the tubes inverted for one minute for the samples to air dry. These collagen samples were used immediately in the acid solubility and digestion studies.
For determination of the amount of acid-insoluble collagen in samples treated and untreated with the AGE-breaker compound, 5 mg aliquots of dried tail-tendon collagen from diabetic and non-diabetic rats, all in duplicates, were added to 2 mL of 0.05 M acetic acid and stirred at 4° C. for 24 hours. The mixture was homogenized in a polytron homogenizer and stirred for an additional 24 hours at 4° C. The suspension was then centrifuged at 9000×g for 60 minutes at 4° C. The collagen in the clear supernatant was defined as the acid soluble collagen, and the gel-like pellet as the acid insoluble collagen.

[3] = target: T1, AGE cross-links in tail tendon collagen of diabetic rats; experiment: Total pepsin digestion assay, collagen-linked fluorescence; conditions: for Pepsin Digestion Assay (% decrease in fluorescence): relative to untreated collagen of diabetic rats
Method: For this study, diabetes was first induced in male Sprague-Dawley rats (Charles River, Wilmington, Mass.) weighing about 150-175 g by injection of streptozotocin (65 mg/kg, i.p.). […] Thirty-two weeks later, the rats are sacrificed and collagen was isolated from the tail tendon of diabetic and normal controls as described by Kochakian et al. (1996). Tail tendons were dissected free of adhering tissues, washed thoroughly in PBS containing protease inhibitors (1 mM each of EDTA, PMSF, iodoacetamide and benzamidine hydrochloride), patted dry onto a paper towel, rolled into a ball, freeze dried, and stored at -20° C. in sealed containers until used. Representative samples of tail tendon collagen were pulled from its bulk and were cut approximately 20-25 mm in size. […] Untreated control tubes include tail tendon collagen and PBS buffer only. The tubes were incubated at 37° C. for 24 hours. After incubation, the tubes were centrifuged at 10,000 rpm and the supernatants discarded. The collagen samples were rinsed with PBS, vortexed thoroughly, centrifuged briefly, and the supernatant discarded. This rinsing was repeated twice. On final rinse, the supernatant was discarded and the tubes inverted for one minute for the samples to air dry. These collagen samples were used immediately in the acid solubility and digestion studies. […] The clear supernatant containing digested collagen was collected and used for collagen-linked fluorescence. […] Fluorescence of the samples was quantified at 365 nm excitation and 418 nm emission. All fluorescence values were corrected for fluorescence of the pepsin in phosphate buffer and expressed as arbitrary units per micromoles of hydroxyproline content of the collagen sample. The hydroxyproline content of each collagen sample was measured following acid hydrolysis, using a microassay method as described ([…] et al., 1997). […] The tubes were autoclaved in a steam sterilizer at 250° F. for 3.5 hours. The samples were taken to dryness using a Savant Speed Vac concentrator with heat, and stored at 4° C. until assayed. The dried samples were rehydrated with 200 μL deionized water, and aliquots were assayed for their hydroxyproline content in a 96-well microtiter plate as described by […] et al. (1997).

[4] = target: T2, cross-linked collagen-AGE-BSA (Rattus norvegicus, UniProt P02454+P02466); experiment: AGE-BSA-collagen ELISA: cleavage of glycated BSA cross-linked to collagen; conditions: for AGE-breaking activity (cleavage of cross-linked collagen-AGE-BSA), in words: 0.1-10 mM final concentration, FIGS. 1A and 1C; for Concentration dependence of AGE-BSA-collagen crosslink breaking, in words: FIGS. 1A-C; for Overall AGE-breaking property, in words: overall judgement of the patent's tests
T2 construct: purchased Biocoat (Collaborative Research, Bedford, Mass.) for the collagen-coated plates; Sigma Chemical co. for bovine serum albumin
Method: In vitro evaluation of the ability of the AGE-breaker compounds to cleave and break cross-linking of glycated BSA (AGE-BSA) (prepared as described (Rahbar et al., 1999)) to the rat-tail-tendon-collagen was by a special ELISA (Vasan et al., 1996). The rat-tail-tendon-collagen coated plates were first blocked first with 300 μL of Superblock blocking buffer (Pierce Chemicals, Rockford, Ill.) for one hour. The blocking solution was removed from the wells by washing the plates twice with PBS-0.05% Tween 20 (PBS-T) using a Dynatech ELISA-plate washer. Cross-linking of various concentrations of AGE-BSA (0, 0.01, 0.05, 0.1, 0.25, 0.50, and 1.0 μg per well) to rat-tail-collagen coated plates was performed without the testing compound, and the plates were incubated for 5 hours at 37° C. After washing the wells three times with PBS-T to remove the unattached AGE-BSA, test concentrations of the compound (50 μL/well) dissolved in PBS were added to wells in triplicate and incubation continued at 37° C. overnight. After washing with PBS-T, the amount of BSA remaining attached to the tail collagen plate was then quantified by addition of rabbit anti-BSA polyclonal antibodies (50 μL/well) for 1 hour at 37° C. The wells were then washed three times with PBS-T and developed with the chromogenic substrate ABTS (100 μL/well). Absorbance was measured at 410 nm in microplate reader (BioRad, Hercules, Calif.).
The percentage breaking activity is calculated by the following formula: 100×[(A410, PBS control)−(A410, AGE-breaker compound)]/[A410, PBS control].

T2 sequence (P02454 152-1207 limits assumed): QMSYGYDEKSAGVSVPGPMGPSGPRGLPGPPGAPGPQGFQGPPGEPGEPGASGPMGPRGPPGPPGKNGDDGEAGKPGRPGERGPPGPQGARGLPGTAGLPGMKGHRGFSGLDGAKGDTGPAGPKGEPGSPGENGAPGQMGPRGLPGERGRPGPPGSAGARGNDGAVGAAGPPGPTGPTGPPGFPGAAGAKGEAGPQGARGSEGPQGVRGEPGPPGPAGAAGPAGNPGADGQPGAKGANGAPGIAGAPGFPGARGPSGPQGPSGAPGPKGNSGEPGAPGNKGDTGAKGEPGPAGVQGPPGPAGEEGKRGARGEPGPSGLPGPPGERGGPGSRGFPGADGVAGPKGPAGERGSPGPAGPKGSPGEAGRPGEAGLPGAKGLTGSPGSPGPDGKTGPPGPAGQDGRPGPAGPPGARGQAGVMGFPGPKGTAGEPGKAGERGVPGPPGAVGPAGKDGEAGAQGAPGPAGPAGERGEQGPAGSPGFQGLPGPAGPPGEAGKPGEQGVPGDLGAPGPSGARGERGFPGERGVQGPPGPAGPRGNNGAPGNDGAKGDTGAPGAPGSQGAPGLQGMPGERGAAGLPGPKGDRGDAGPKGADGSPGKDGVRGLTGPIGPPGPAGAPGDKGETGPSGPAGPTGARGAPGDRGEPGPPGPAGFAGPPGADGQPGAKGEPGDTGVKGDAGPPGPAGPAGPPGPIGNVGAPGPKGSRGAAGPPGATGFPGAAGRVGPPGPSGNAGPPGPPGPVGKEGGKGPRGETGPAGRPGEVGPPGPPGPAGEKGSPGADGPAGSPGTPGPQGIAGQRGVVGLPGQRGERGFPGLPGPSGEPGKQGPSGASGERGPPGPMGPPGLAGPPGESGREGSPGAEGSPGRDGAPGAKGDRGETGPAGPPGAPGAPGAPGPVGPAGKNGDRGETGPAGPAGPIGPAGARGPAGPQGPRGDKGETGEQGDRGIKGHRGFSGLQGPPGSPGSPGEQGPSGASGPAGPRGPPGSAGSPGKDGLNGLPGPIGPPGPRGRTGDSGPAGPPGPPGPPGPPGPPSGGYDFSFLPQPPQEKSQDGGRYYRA
T2 sequence (P02466 86-1125 limits assumed): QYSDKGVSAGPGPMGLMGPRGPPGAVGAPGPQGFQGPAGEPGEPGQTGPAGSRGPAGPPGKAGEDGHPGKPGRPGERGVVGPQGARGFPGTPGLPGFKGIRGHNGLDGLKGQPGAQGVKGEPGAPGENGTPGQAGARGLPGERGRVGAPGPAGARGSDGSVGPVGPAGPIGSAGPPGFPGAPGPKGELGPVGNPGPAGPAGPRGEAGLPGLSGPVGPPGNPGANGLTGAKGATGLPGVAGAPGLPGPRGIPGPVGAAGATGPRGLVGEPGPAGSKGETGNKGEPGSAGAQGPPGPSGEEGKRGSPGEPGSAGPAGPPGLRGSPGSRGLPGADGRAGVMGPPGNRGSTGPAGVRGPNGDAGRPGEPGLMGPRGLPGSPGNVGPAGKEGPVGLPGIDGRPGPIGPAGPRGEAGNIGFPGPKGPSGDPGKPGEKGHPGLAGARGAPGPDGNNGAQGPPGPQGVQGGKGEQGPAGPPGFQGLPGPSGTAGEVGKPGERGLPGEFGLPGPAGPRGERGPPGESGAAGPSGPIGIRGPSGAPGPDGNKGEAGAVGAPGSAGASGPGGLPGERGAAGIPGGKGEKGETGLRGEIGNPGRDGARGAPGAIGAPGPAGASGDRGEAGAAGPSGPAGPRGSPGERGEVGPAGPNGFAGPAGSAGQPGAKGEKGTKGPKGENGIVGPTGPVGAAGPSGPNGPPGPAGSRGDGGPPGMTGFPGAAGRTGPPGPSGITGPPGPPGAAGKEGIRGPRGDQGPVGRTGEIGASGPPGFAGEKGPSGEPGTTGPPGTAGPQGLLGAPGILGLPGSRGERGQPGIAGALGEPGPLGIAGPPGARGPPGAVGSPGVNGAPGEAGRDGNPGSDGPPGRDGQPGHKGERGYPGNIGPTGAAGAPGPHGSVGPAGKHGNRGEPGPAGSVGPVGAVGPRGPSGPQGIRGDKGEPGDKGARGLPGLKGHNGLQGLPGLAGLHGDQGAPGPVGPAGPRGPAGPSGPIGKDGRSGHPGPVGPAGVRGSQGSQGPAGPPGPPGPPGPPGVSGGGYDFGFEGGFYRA
T1 sequence (P02454 152-1207 limits assumed): as the sequence (P02454 152-1207 limits assumed) above
T1 sequence (P02466 86-1125 limits assumed): as the sequence (P02466 86-1125 limits assumed) above

AGE-linked fluorescence of collagen after papain digestion, in words ([1]; collagen of diabetic rats, P<0.05 for LR23, FIG. 4B)	Collagen solubility in weak acid, in words ([2]; collagen of diabetic rats, P<0.05 for LR23, FIG. 2B)	AGE-linked fluorescence of collagen after pepsin digestion, in words ([3]; collagen of diabetic rats, P<0.05 for LR23, FIG. 3B)	Overall AGE-breaking property, in words [4]	Overall AGE-breaking property, in words ([4]; listed as metformin)	Molecule	Papain digestion Assay (% decrease in fluorescence) ([1]; 0.1 mM) [%]	Papain digestion Assay (% decrease in fluorescence) ([1]; 1.0 mM) [%]	Papain digestion Assay (% decrease in fluorescence) ([1]; 10 mM) [%]	Acid Solubility Test (% increase in solubility) ([2]; 0.1 mM) [%]	Acid Solubility Test (% increase in solubility) ([2]; 1.0 mM) [%]	Acid Solubility Test (% increase in solubility) ([2]; 10 mM) [%]	Pepsin Digestion Assay (% decrease in fluorescence) ([3]; 0.1 mM) [%]	Pepsin Digestion Assay (% decrease in fluorescence) ([3]; 1.0 mM) [%]	Pepsin Digestion Assay (% decrease in fluorescence) ([3]; 10 mM) [%]	AGE-breaking activity (cleavage of cross-linked collagen-AGE-BSA), in words [4]	Concentration dependence of AGE-BSA-collagen crosslink breaking, in words [4]
–	–	–	–	–	4-[(3,5-dichlorophenylureidophenoxyisobutyryl]-4-aminobenzoic acid [LR99]	23.5	35.9	63.6	1.6	7.3	16.0	9.8	16.1	12.6	very effective AGE-breakers	–
reduced the AGE-linked fluorescence	significantly increased solubility	reduced the AGE-linked fluorescence	most effective AGE-breakers	–	CC(C)(Oc1ccc(NC(=O)Nc2cc(Cl)cc(Cl)c2)cc1)C(=O)NC1(C(=O)O)CCCCC1 [LR23, 4-(3,5-dichlorophenylureido)phenoxyisobutyryl-1-amidocyclohexane-1-carboxylic acid]	16.7	25.9	47.2	18.3	19.4	32.7	7.3	15.5	18.7	very effective AGE-breakers	more effective breakers at higher concentrations
–	–	–	moderate AGE-breaking properties	moderate AGE-breaker	CN(C)C(=N)NC(=N)N [Metformin, 1,1-dimethylbiguanide, reference compound]	–	–	–	–	–	–	–	–	–	–	more potent at lower concentrations; also recorded: highly effective at low concentrations
–	–	–	–	–	L-bis-[4-(4-chlorobenzamidophenoxyisobutyryl)cystine] [LR20]	18.3	18.4	24.3	1.5	7.3	24.0	7.1	8.9	27.8	very effective AGE-breakers	more effective breakers at higher concentrations
